Measurements: US10266489B2, “Pyrrolic amide compound and preparation method and application thereof” (HitGen LTD, priority 2014, dated 2019)

Legend:
[1] = system: Li7 cells; assay: Determination of cell growth inhibition, CCK-8, Li-7; assay type: cell-based; conditions: Li-7 hepatoma cells, 72 hours, highest measured IC50 of single or multiple operations
Text: (§1) Test example 2 Cell determination-determination of cell growth inhibition Materials and reagents HepG2 cell strains, Hep3B cell strains, Huh7 cell strains and Li7 cell strains are purchased from Shanghai Institutes for Biological Sciences of Chinese Academy of Sciences; DMEM high glucose media and MEM media are purchased from Hyclone; fetal calf serum is purchased from Gibco Company; trypsin is purchased from Invitrogen Shanghai; CCK-8 kits are purchased from Beyotime Institute of Biotechnology; and other consumables such as cell-culture dishes and the like are purchased from Corning China. […]
(§2) comprising the steps: digesting HepG2 cells, Hep3B Huh7 cells and Li7 cells in logarithmic phases by using the trypsin; after counting the cells by taking uniform cell suspension, adjusting cell density to 1500 cells/pore by using a culture medium containing 10% of serum, and re-inoculating into a 96-pore cell culture plate, wherein the culture volume is 200 μL; incubating in a 5% CO2 incubator at a temperature of 37° C.; and culturing for 24 hours for experiments. […]
(§3) comprising the steps: taking the cells cultured for 24 hours from the incubator, sucking culture solution in the pore plate, adding 200 μL of compound solution prepared by using a culture medium containing 10% of the fetal calf serum into each pore, enabling five pores of each concentration to be parallel, setting DMSO at negative control, and incubating in the 5% CO2 incubator at a temperature of 37° C. for 72 hours for performing CCK-8 detection. […]
(§4) comprising the steps: taking a serum-free medium and a CCK-8 solution, and preparing a CCK-8 working solution according to a ratio of 10:1 (the process needs to be protected from light); taking the cells cultured for 72 hours from the incubator, sucking culture solution in the pore plate, adding 120 μL of the CCK-8 working solution into each pore, adding 120 μL of the CCK-8 working solution into a cell-free pore plate to serve as blank control, and incubating in the 5% CO2 incubator at a temperature of 37° C. for one hour (the process needs to be protected from light ); and […]
(§5) taking the pore plate from the incubator, sucking 100 μL of solution from each pore into a new 96-pore plate, and reading absorbancy at 450 nm (the process needs to he protected from light).
(§6) Tx: absorbancy measured in CCK-8 within 72 hours after compound effect
(§7) C: absorbancy measured m CCK-8 within 72 hours after culturing in negative control pores B: absorbancy measured CCK-8 in blank control pores
(§8) The compounds 1-19 prepared in the embodiments are operated in the above determination, and test results are shown in Table 3, wherein the highest measured IC50 values of the various compounds during single or multiple operations are classified as specified, as shown in Table 3: […]

[2] = system: Hep3B cells; assay: Determination of cell growth inhibition, CCK-8, Hep3B; assay type: cell-based; conditions: Homo sapiens, Hep3B hepatoma cells, 72 hours, highest measured IC50 of single or multiple operations
Text: as §1, §2, §3, §4, §5, §6, §7, §8

[3] = molecular target: T1, histone deacetylase 6 (HDAC6) (Homo sapiens, UniProt Q9UBN7); assay: Detection of enzyme viability of histone deacetylase 6 (fluorogenic substrate deacetylation); assay type: biochemical; conditions: 0.35 ng/μL HDAC 6, 20 μM substrate, 37° C.
T1 construct: purchased BPS Bioscience 50076
T1 sequence (Q9UBN7 1-1215): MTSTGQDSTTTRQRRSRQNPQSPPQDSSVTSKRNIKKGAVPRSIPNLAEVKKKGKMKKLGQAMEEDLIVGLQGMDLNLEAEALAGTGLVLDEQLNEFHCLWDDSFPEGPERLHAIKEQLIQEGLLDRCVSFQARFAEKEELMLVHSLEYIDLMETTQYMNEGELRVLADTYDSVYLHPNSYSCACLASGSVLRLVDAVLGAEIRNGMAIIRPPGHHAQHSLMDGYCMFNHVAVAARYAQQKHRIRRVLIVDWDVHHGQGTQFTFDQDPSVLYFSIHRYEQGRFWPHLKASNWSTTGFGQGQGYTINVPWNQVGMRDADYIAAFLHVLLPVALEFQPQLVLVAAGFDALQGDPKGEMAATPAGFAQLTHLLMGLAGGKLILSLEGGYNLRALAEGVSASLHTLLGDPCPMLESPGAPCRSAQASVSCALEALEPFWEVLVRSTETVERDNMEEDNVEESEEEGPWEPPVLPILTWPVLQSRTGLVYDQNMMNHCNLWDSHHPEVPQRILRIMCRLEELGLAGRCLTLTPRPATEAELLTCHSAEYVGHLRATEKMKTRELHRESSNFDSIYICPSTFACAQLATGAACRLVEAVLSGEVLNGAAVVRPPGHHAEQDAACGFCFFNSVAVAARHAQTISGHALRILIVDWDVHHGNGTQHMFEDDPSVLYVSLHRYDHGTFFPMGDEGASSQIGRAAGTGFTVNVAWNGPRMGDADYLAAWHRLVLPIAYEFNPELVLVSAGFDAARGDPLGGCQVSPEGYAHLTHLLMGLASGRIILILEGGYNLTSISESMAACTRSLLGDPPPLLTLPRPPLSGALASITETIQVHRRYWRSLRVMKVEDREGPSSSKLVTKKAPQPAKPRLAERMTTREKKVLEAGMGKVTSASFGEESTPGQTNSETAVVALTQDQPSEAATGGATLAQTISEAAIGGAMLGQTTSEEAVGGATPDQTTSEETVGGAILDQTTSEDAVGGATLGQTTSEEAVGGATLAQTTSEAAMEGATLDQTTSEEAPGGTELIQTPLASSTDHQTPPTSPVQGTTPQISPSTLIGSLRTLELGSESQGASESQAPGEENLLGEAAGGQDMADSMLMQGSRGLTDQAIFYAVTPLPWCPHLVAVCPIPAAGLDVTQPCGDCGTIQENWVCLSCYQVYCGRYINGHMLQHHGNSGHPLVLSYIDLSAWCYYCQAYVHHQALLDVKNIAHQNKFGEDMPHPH
Text: (§9) HDAC inhibitory viabilities of the compounds in the present invention are detected in detection of substrate deacetylation.
A: Detection of enzyme viability of histone deacetylase 6 (#50076, BPS Bioscience):
Acetyl of HDAC 6 on a substrate is removed, so that the substrate is activated and can be affected by a subsequently added developing solution, and fluorophore is released. The size of a fluorescence signal reflects the viability of the HDAC 6. An IC50 detection method of the enzyme is disclosed in Chuping Xu, Elisabetta Soragni improved Histone Deacetylase Inhibitors as Therapeutics for the Neurdegenerative DiseaseEriedreich's Ataxia: A New Synthetic Route. A total reaction system (100 μL/well) contains 0.35 ng/μL of HDAC 6, 20 μM of substrate and compounds of different concentrations. The fluorescence signal is measured within 30 minutes after incubation at a temperature of 37° C., inhibitory effects of the compounds are determined from the obtained data and mapped with the compound concentrations to obtain a concentration response curve, and the IC50 value is fitted according to a four-parameter model.
(§10) The compounds 1-19 prepared in the embodiments are subjected to detection of enzyme viability of histone deacetylase 6 (i.e., HDAC6) according to the method above. Test results are shown in Table 2, wherein the measured IC50 values of the compounds are classified as specified, as shown in Table 2: […]

[4] = system: HepG2 cells; assay: Determination of cell growth inhibition, CCK-8, HepG2; assay type: cell-based; conditions: Homo sapiens, HepG2 hepatoma cells, 72 hours, highest measured IC50 of single or multiple operations
Text: as §1, §2, §3, §4, §5, §6, §7, §8

[5] = system: Huh7 cells; assay: Determination of cell growth inhibition, CCK-8, Huh-7; assay type: cell-based; conditions: Homo sapiens, Huh-7 hepatoma cells, 72 hours, highest measured IC50 of single or multiple operations
Text: as §1, §2, §3, §4, §5, §6, §7, §8

[6] = molecular target: T2, histone deacetylase 3 (HDAC3) (Homo sapiens, UniProt O15379); assay: Detection of enzyme viability of histone deacetylase 3 (fluorogenic substrate deacetylation); assay type: biochemical; conditions: 0.16 ng/μL HDAC 3, 10 μM substrate
T2 construct: purchased BPS Bioscience 50003
T2 sequence (O15379 whole entry): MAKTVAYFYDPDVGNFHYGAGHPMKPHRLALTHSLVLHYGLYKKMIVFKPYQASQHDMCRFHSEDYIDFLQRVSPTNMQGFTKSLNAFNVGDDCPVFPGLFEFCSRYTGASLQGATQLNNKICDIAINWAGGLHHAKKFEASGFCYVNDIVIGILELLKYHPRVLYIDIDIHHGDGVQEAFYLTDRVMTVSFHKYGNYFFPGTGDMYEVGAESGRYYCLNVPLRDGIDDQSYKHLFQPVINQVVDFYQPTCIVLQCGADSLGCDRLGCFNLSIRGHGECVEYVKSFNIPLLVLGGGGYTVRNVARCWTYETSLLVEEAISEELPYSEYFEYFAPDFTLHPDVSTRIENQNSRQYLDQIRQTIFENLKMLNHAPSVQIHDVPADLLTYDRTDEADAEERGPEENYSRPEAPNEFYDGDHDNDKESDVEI
T2 sequence (Q9Y618 395-489 partner limits assumed): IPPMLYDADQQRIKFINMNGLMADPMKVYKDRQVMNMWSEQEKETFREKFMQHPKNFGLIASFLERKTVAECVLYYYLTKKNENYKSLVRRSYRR
Text: as §9
B: Detection of enzyme viability of histone deacetylase 3 (#50003, BPS Bioscience):
Acetyl of HDAC 3 on a substrate is removed, so that the substrate is activated and can be affected by the developing solution, and fluorophore is released. The size of a fluorescence signal reflects the viability of the HDAC 3. An IC50 detection method of the enzyme is disclosed in Chuping Xu, Elisabetta Soraeni Improved Histone Deacetylase Inhibitors as Therapeutics for the Neurdegenerative DiseaseFriedreich's Ataxia: A New Synthetic Route. A total reaction system (100 μL/well) contains 0.16 ng/μL of HDAC 3, 10 μM of substrate and compounds of different concentrations. The fluorescence signal is detected at Ex/Em=360/460 on line, inhibitory effects of the compounds are determined from the obtained data and mapped with the compound concentrations to obtain a concentration response curve, and the IC50 value is fitted according to a four-parameter model.
as §10, with “3” for “6”, “HDAC3)” for “HDAC6)”

Compound	IC50 [1]	IC50 [2]	IC50 [3]	IC50 [4]	IC50 [5]	IC50 [6]
O=C(NO)C1=CCN(S(=O)(=O)c2ccc(Oc3ccccc3)cc2)C1 [Compound 3]	> 10 µM	> 10 µM	0.1 to 0.3 µM	> 10 µM	> 10 µM	0.1 to 1 µM
O=C(NO)C1=CCN(S(=O)(=O)c2ccc3c(c2)OCC3)C1 [Compound 6, N-hydroxy-1-((2,3-dihydro-benzofuran)-6-sulfonyl)2,5-dihydro-1H-pyrrole-3-formamide]	> 10 µM	> 10 µM	< 0.1 µM	> 10 µM	> 10 µM	0.1 to 1 µM
O=C(NO)C1=CCN(S(=O)(=O)c2ccc3c(c2)OCCO3)C1 [Compound 5, N-hydroxy-1-((2,3-dihydro-benzo[b] [1,4]dioxin)-6-sulfonyl)2,5-dihydro-1H-pyrrole-3-formamide]	> 10 µM	> 10 µM	< 0.1 µM	> 10 µM	> 10 µM	> 1 µM
CC(=O)Nc1ccc(S(=O)(=O)N2CC=C(C(=O)NO)C2)cc1Cl [Compound 4, N-hydroxy-1-((4-acetamido-3-chlorphenyl)sulfonyl)2,5-dihydro-1H-pyrro1e-3-formamide]	> 10 µM	> 10 µM	< 0.1 µM	> 10 µM	> 10 µM	0.1 to 1 µM
O=C(NO)C1=CCN(S(=O)(=O)c2ccccc2)C1 [Compound 2, N-hydroxy-1-(benzene-sulfonyl)-2,5-dihydro-1H-pyrrole-3-formamide]	> 10 µM	> 10 µM	< 0.1 µM	> 10 µM	> 10 µM	> 1 µM
